Measured values published in patent US6211173A, “Use of 2,3,4,5-tetrahydro-1H-3-benzazepines for the manufacture of a pharmaceutical composition for the treatment of sleep disorders” (Cenes Limited, priority 1997, dated 2001).
One block for each compound: values may come before it.

What was measured:
[1] = Serum concentration following oral administration in men (pharmacokinetic experiments); assay type: in vivo
Method: NNC 0756 (80 mg) and another dopamine D1 receptor antagonist, the compound of Example 4 (25 mg), were administered to two and three men, respectively. Serum concentrations of the compounds were measured 1.5 and 6.0 hours following oral administration of the compound of Example 4 and 1.5 and 8.0-8.8 hours following oral administration of NNC 0756.

dopamine D1 receptor [2] = details: preclinical, rat; cited from earlier work
[3] = background statement, no test described; cited from earlier work
dopamine D1 receptor [4] = details: preclinical, rat; cited from earlier work; remark: listed apart in the source

- serum concentration of the compound of Example 4 relative to the serum concentration measured 1.5 hours after drug administration ([1]; 25 mg oral, three men, 6 hours after administration vs 1.5 hours): about 10%
- elimination time compared to NNC 0756 ([1]; compared to the kinetic profile of NNC 0756): shorter elimination time
Compound: CN1CCc2cc([N+](=O)[O-])c(O)cc2C(c2cccc3c2OCC3)C1 (single isomer, unassigned; (+)) [Example 4, (+)-5-(2,3-dihydrobenzofuran-7-yl)-7-hydroxy-3-methyl-8-nitro-2,3,4,5-tetrahydro-1H-3-benzazepine]

- serum concentration of NNC 0756 relative to the serum concentration measured 1.5 hours after administration ([1]; 80 mg oral, two men, 8.0-8.8 hours after administration vs 1.5 hours): about 35%
Compound: CN1CCc2cc(Cl)c(O)cc2C(c2cccc3c2OCC3)C1 (single isomer, unassigned; (+)) [NNC 0756, (+)-8-chloro-7-hydroxy-3-methyl-5-(2,3-dihydrobenzofuran-7-yl)-2,3,4,5-tetrahydro-1H-3-benzazepine]
- REM and non-REM sleep (dopamine D1 receptor [2]): increase in both REM and non-REM sleep
- time spent in sleep (dopamine D1 receptor [2]): markedly enhance the time spent in sleep
- half life [3]: relatively long half life

Compound: Oc1cc2c(cc1O)C(c1ccccc1)CNCC2 (centres unmarked) [SKF 38393]
- amount of REM sleep (dopamine D1 receptor [4]): reduced the amount of REM sleep
- duration of wakefulness (dopamine D1 receptor [4]): increased the duration of wakefulness
